Tests used:
[1] = humans; prior art U.S. Pat. No. 5,880,117; cited from earlier work
[2] = half-life when delivered sublingually or transmucosally; conditions: in vivo
Method: 7-methoxyflavone is an aromatase inhibitor. Aromatase inhibitors work by inhibiting the action of the enzyme aromatase, which converts androgens into estrogens by a process called aromatization. 7-methoxyflavone is a compound having poor bioavailability of about 5% when ingested. According to an embodiment of the present invention, from about 5 mg to 50 mg, and preferably from about 20 mg to 30 mg of 7-methoxyflavone may be included in the formulations and dosage forms of the present invention, when delivered sublingually or transmucosally. […] According to an embodiment, the 7-methoxyflavone may be from a plant extract. 7-methoxyflavone has been found in Meliaceae and Rutaceae plants. According to an embodiment, the 7-methoxyflavone may therefore be from an extract containing at least 90% 7-methoxyflavone, standardized. Preferably, extract contains at least […] 7-methoxyflavone, standardized.
According to an embodiment of the present invention, from about 5 mg to 50 mg, and preferably from about 20 mg to 30 mg of 7,8-benzoflavone may be included in the formulations and dosage forms of the present invention, when delivered sublingually or transmucosally. According to an embodiment, the half-life of 7,8-benzoflavone is about 1-2h when delivered sublingually or transmucosally.

SMILES: C[C@]12CC[C@H]3[C@@H](CCC4=C[C@@H](O)CC[C@@]43C)[C@@H]1CC[C@@H]2O [4-androstene-3β, 17β-diol]
- period over which concentration declines after the peak [1]: 3 to 4 h
- time to peak concentration after administration [1]: ≤ 90 min

SMILES: O=c1cc(-c2ccccc2)oc2c1ccc1ccccc12 [7,8-benzoflavone, 2-phenyl-benzo(h)chromen-4-one]
- half-life [2]: 1 to 2 h

SMILES: COc1ccc2c(=O)cc(-c3ccccc3)oc2c1 [7-methoxyflavone]
- half-life [2]: 8 to 12 h

From US20160361257A1, “COMPOSITION FOR INCREASING TESTOSTERONE LEVELS AND ENHANCING LIBIDO” (priority 2015, published 2016)
